From PubChem BioAssay AID248 (DTP/NCI, 2004) come the findings set out here.

Several values for one entry are separate records, joined by “and”; a condition that tells them apart may be missing. Identical values can stand only once. Inconclusive results and toxic doses are left out.

For this assay, the system named is L1210 leukemia ip in BDF1 mice, survival T/C. In words: NCI In Vivo Anticancer Drug Screen. Data for tumor model L1210 Leukemia (intraperitoneal) in B6D2F1 (BDF1) mice. Conditions: endpoint: mean survival time, higher = longer survival. The gist of the method: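 Transplanted-tumor mice were given test agent; controls received vehicle only. Survival readings from the two groups were divided (treated over control).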

The mark [1] stands for this setting: dose: 100.0 mg/kg/injection, schedule: Q01DX009 (ip), vehicle: Klucel (hydroxypropylcellulose) (HPC).
The mark [2] stands for this setting: dose: 100.0 mg/kg/injection, schedule: Q04DX003 (ip), vehicle: Klucel (hydroxypropylcellulose) (HPC).
Setting [3] is: dose: 200.0 mg/kg/injection, schedule: Q01DX009 (ip), vehicle: Klucel (hydroxypropylcellulose) (HPC).
The mark [4] stands for this setting: dose: 200.0 mg/kg/injection, schedule: Q04DX003 (ip), vehicle: Klucel (hydroxypropylcellulose) (HPC).
Where [5] appears, read: dose: 400.0 mg/kg/injection, schedule: Q01DX009 (ip), vehicle: Klucel (hydroxypropylcellulose) (HPC).
The mark [6] stands for this setting: dose: 400.0 mg/kg/injection, schedule: Q04DX003 (ip), vehicle: Klucel (hydroxypropylcellulose) (HPC).
The mark [7] stands for this setting: dose: 100.0 mg/kg/injection, schedule: Q01DX001 (ip), vehicle: Klucel (hydroxypropylcellulose) (HPC).
The mark [8] stands for this setting: dose: 100.0 mg/kg/injection, schedule: Q01DX001 (ip), vehicle: saline.
Where [9] appears, read: dose: 200.0 mg/kg/injection, schedule: Q01DX001 (ip), vehicle: saline.
[10] abbreviates: dose: 400.0 mg/kg/injection, schedule: Q01DX001 (ip), vehicle: saline.
The mark [11] stands for this setting: dose: 25.0 mg/kg/injection, schedule: Q01DX009 (ip), vehicle: saline.
The mark [12] stands for this setting: dose: 50.0 mg/kg/injection, schedule: Q01DX009 (ip), vehicle: saline.
Where [13] appears, read: dose: 100.0 mg/kg/injection, schedule: Q01DX009 (ip), vehicle: saline.

For the compound `Cc1cc(C)cc(OC(=O)Nc2ccccc2Cl)c1`, the T/C is, setting by setting: under setting [1], 88 % of control; under setting [2], 98 % of control; under setting [3], 92 % of control; under setting [4], 98 % of control; under setting [5], 86 % of control; under setting [6], 98 % of control.

On to `CC1(C)N=C(N)N=C(N)N1c1cccc(OCCOc2ccccc2N)c1`, for which the T/C reads like this: (dose: 25.0 mg/kg/injection, schedule: Q01DX001 (ip), vehicle: Klucel (hydroxypropylcellulose) (HPC)) 101 % of control; (dose: 50.0 mg/kg/injection, schedule: Q01DX001 (ip), vehicle: Klucel (hydroxypropylcellulose) (HPC)) 101 % of control; under setting [7], 98 % of control.

For `O=C(/C=C\c1ccccc1)NCCCCNC(=O)/C=C/c1ccccc1`, the T/C reads like this: under setting [8], 97 % of control; under setting [9], 105 % of control; under setting [10], 87 % of control.

Turning to `CCN(C(=O)N(CCCl)N=O)C1CCCCC1`, the T/C (dose: 75.0 mg/kg/injection, schedule: Q01DX001 (ip), vehicle: saline) is 97 % of control.

For the compound `CC1OC(O)C(N)C(O)C1O` (centres undefined), the T/C was 107 % of control under setting [8], 106 % of control under setting [9] and 106 % of control under setting [10].

Regarding `O=C(c1ccccc1)C1C(c2ccccc2)N1CCl` (centres undefined), the T/C under setting [1] is 98 % of control; the T/C under setting [2] was 92 % of control; the T/C under setting [3] is 94 % of control; the T/C under setting [4] was 105 % of control; the T/C under setting [5] was 100 % of control; the T/C under setting [6] is 107 % of control.

For `CCOC(=O)c1ccccn1`, the T/C was 98 % of control under setting [8] and 98 % of control under setting [9].

Take `CCN(CC)CCOC(=O)c1ccccc1N(c1ccccc1)c1ccccc1`: the T/C runs as follows: under setting [11], 98 % of control; under setting [12], 98 % of control; (dose: 62.5 mg/kg/injection, schedule: Q01DX015 (ip), vehicle: saline) 91 % of control; under setting [8], 92 % of control; under setting [13], 98 % of control; (dose: 100.0 mg/kg/injection, schedule: Q04DX003 (ip), vehicle: acetone) 96 % of control. Besides, the T/C is, setting by setting: (dose: 125.0 mg/kg/injection, schedule: Q01DX015 (ip), vehicle: saline) 95 % of control; (dose: 150.0 mg/kg/injection, schedule: Q01DX009 (ip), vehicle: acetone) 96 % of control; under setting [9], 103 % of control; under setting [10], 98 % of control.

For `CC(=O)OCCCC/C(=C/c1cc2ccccc2c2ccccc12)[N+](=O)[O-]`, the T/C (dose: 100.0 mg/kg/injection, schedule: Q01DX009 (ip), vehicle: carboxymethylcellulose (CMC)) is 100 % of control; the T/C (dose: 266.0 mg/kg/injection, schedule: Q01DX009 (ip), vehicle: carboxymethylcellulose (CMC)) was 104 % of control; the T/C (dose: 400.0 mg/kg/injection, schedule: Q01DX009 (ip), vehicle: carboxymethylcellulose (CMC)) was 104 % of control; the T/C (dose: 600.0 mg/kg/injection, schedule: Q01DX009 (ip), vehicle: carboxymethylcellulose (CMC)) was 100 % of control.

Turning to `Nc1ncnc2c1nnn2C1OC(CO)C(O)C1O` (centres undefined), the T/C (dose: 42.0 mg/kg/injection, schedule: Q01DX015 (ip), vehicle: saline) is 104 % of control; the T/C (dose: 50.0 mg/kg/injection, schedule: Q01DX001 (ip), vehicle: saline) is 107 % of control; the T/C (dose: 63.0 mg/kg/injection, schedule: Q01DX015 (ip), vehicle: saline) was 98 % of control; the T/C (dose: 72.0 mg/kg/injection, schedule: Q01DX015 (ip), vehicle: saline) is 117 % of control; the T/C under setting [7] was 97 % of control; the T/C under setting [8] is 109 % of control and 106 % of control. The T/C is 95 % of control under setting [2]; 120 % of control (dose: 180.0 mg/kg/injection, schedule: Q01DX001 (ip), vehicle: Klucel (hydroxypropylcellulose) (HPC)); 113 % of control (dose: 180.0 mg/kg/injection, schedule: Q01DX001 (ip), vehicle: saline); 92 % of control (dose: 200.0 mg/kg/injection, schedule: Q01DX001 (ip), vehicle: Klucel (hydroxypropylcellulose) (HPC)); 116 % of control and 109 % of control under setting [9]; 95 % of control under setting [4]. In addition, the T/C reads like this: (dose: 270.0 mg/kg/injection, schedule: Q01DX001 (ip), vehicle: Klucel (hydroxypropylcellulose) (HPC)) 122 % of control; (dose: 400.0 mg/kg/injection, schedule: Q01DX001 (ip), vehicle: Klucel (hydroxypropylcellulose) (HPC)) 122 % of control and 97 % of control; under setting [10], 106 % of control; under setting [6], 92 % of control.

On to `CCC(Cl)(c1ccccc1)C(O)C(=O)OC(C)C` (centres undefined), for which the T/C was 106 % of control (dose: 100.0 mg/kg/injection, schedule: Q04DX002 (ip), vehicle: Klucel (hydroxypropylcellulose) (HPC)); 103 % of control (dose: 200.0 mg/kg/injection, schedule: Q04DX002 (ip), vehicle: Klucel (hydroxypropylcellulose) (HPC)); 106 % of control (dose: 400.0 mg/kg/injection, schedule: Q04DX002 (ip), vehicle: Klucel (hydroxypropylcellulose) (HPC)).

For `CCCCCCCCOc1ccc(C)cc1`, the T/C is 107 % of control under setting [1], 94 % of control under setting [3] and 97 % of control under setting [5].

On to `CC(C)CCC[C@@H](C)[C@H]1CC[C@H]2[C@@H]3CC[C@H]4C[C@H](NC(=O)N(CCF)N=O)CC[C@]4(C)[C@H]3CC[C@]12C`, for which the T/C (dose: 8.0 mg/kg/injection, schedule: Q01DX001 (ip), vehicle: other) was 102 % of control; the T/C (dose: 16.0 mg/kg/injection, schedule: Q01DX001 (ip), vehicle: other) was 103 % of control; the T/C (dose: 31.0 mg/kg/injection, schedule: Q01DX001 (ip), vehicle: other) was 108 % of control; the T/C (dose: 62.0 mg/kg/injection, schedule: Q01DX001 (ip), vehicle: other) was 116 % of control; the T/C (dose: 250.0 mg/kg/injection, schedule: Q01DX001 (ip), vehicle: other) was 116 % of control; the T/C (dose: 375.0 mg/kg/injection, schedule: Q01DX001 (ip), vehicle: other) was 122 % of control. Also, the T/C by setting is: (dose: 500.0 mg/kg/injection, schedule: Q01DX001 (ip), vehicle: other) 124 % of control; (dose: 750.0 mg/kg/injection, schedule: Q01DX001 (ip), vehicle: other) 170 % of control; (dose: 1000.0 mg/kg/injection, schedule: Q01DX001 (ip), vehicle: other) 153 % of control; (dose: 1500.0 mg/kg/injection, schedule: Q01DX001 (ip), vehicle: other) 188 % of control; (dose: 2000.0 mg/kg/injection, schedule: Q01DX001 (ip), vehicle: other) 202 % of control; (dose: 2500.0 mg/kg/injection, schedule: Q01DX001 (ip), vehicle: other) 252 % of control.

For `CC(CC1c2ccccc2CCc2ccccc21)CN(C)C` (centres undefined), the T/C was 95 % of control (dose: 6.25 mg/kg/injection, schedule: Q01DX009 (ip), vehicle: saline); 104 % of control (dose: 12.5 mg/kg/injection, schedule: Q01DX009 (ip), vehicle: saline); 95 % of control under setting [11]; 102 % of control (dose: 25.0 mg/kg/injection, schedule: Q04DX003 (ip), vehicle: saline); 101 % of control under setting [12]; 107 % of control (dose: 50.0 mg/kg/injection, schedule: Q04DX003 (ip), vehicle: saline). Also, the T/C (dose: 100.0 mg/kg/injection, schedule: Q04DX003 (ip), vehicle: saline) was 120 % of control.

As for `COC(=O)CCc1nc(N)nc(N)n1`, the T/C by setting is: (dose: 50.0 mg/kg/injection, schedule: Q01DX001 (ip), vehicle: carboxymethylcellulose (CMC)) 98 % of control; (dose: 100.0 mg/kg/injection, schedule: Q01DX001 (ip), vehicle: carboxymethylcellulose (CMC)) 90 % of control; (dose: 200.0 mg/kg/injection, schedule: Q01DX001 (ip), vehicle: carboxymethylcellulose (CMC)) 101 % of control; (dose: 400.0 mg/kg/injection, schedule: Q01DX001 (ip), vehicle: carboxymethylcellulose (CMC)) 90 % of control.

As to `CCOC(O)(C=O)C1CCCN1` (centres undefined), the T/C is 100 % of control under setting [8]; 104 % of control under setting [13]; 97 % of control under setting [9]; 101 % of control (dose: 200.0 mg/kg/injection, schedule: Q01DX009 (ip), vehicle: saline); 97 % of control under setting [10]; 95 % of control (dose: 400.0 mg/kg/injection, schedule: Q01DX009 (ip), vehicle: saline).
